13 compounds from ChEMBL document CHEMBL4842336, “Synthesis and computational studies of novel fused pyrimidinones as a promising scaffold with analgesic, anti-inflammatory and COX inhibitory potential” (Eur J Med Chem, 2021) can be followed below.

For data set [1], the system named is Rattus norvegicus. Kind of data set: Analgesic activity against p-benzoquinone induced writhing in albino rat model assessed as protection rate at 28 uM/kg, ip measured after 30 mins relative to control. Format: functional. The following applies: 0.5 h, at 28 µmol/kg.
Data set [2] is described as follows: Ulcerogenic activity in fasted albino rat assessed as ulcer index at 28 uM/kg, po administered for 3 consecutive days (reference value: 0). Type of data set: toxicity, organism-based. To be noted: in vivo, 72 h, time 3 day.
Data set [3] is described as follows: Ulcerogenic activity in fasted albino rat assessed as severity of ulcers at 28 uM/kg, po administered for 3 consecutive days (reference value: 0 %). Format: toxicity, organism-based. The following applies: in vivo, 72 h, time 3 day.
For data set [4], the system named is Rattus norvegicus. The data set is described as follows: Anti-inflammatory activity in Wistar albino rat model of carragenan-induced paw edema assessed as reduction in edema thickness at 28 uM/kg, ip measured after 3 hrs by plethysmometer (reference value: 1.64 +/- 0.04 millimeter). To be noted: at 28 µmol/kg. More on the design: scale not given: the % may be the effect or the level left. Type of data set: functional.

In data set [5] the test system is Rattus norvegicus. The data set is described as follows: Anti-inflammatory activity in Wistar albino rat model of carragenan-induced paw edema assessed as reduction in edema thickness at 28 uM/kg, ip measured after 2 hrs by plethysmometer (Rvb =1.6 +/- 0.12 millimeter). Format: functional.
Data set [6] in a line: Ulcerogenic activity in fasted albino rat assessed as number of ulcers at 28 uM/kg, po administered for 3 consecutive days (reference value: 0 %). Type of data set: toxicity, organism-based. To be noted: in vivo, 72 h, time 3 day.
Data set [7] relates to Rattus norvegicus. The data set is described as follows: Anti-inflammatory activity Wistar albino rat model of carragenan-induced paw edema assessed as inhibition of inflammation at 28 uM/kg, ip measured after 3 hrs by plethysmometer relative to control. Type of data set: functional. More on the design: scale not given: the % may be the effect or the level left. The following applies: at 28 µmol/kg.

Data set [8] deals with Rattus norvegicus. The data set is described as follows: Anti-inflammatory activity in Wistar albino rat model of carragenan-induced paw edema assessed as inhibition of inflammation at 28 uM/kg, ip measured after 2 hrs by plethysmometer relative to control. Type of data set: functional.
The test system of data set [9] is Rattus norvegicus. The data set is described as follows: Analgesic activity against p-benzoquinone induced writhing in albino rat model assessed as protection rate at 28 uM/kg, ip measured after 30 mins relative to indomethacin. Format: functional. To be noted: 0.5 h, at 28 µmol/kg. A general note: An intraperitoneal irritant provokes the stretching counted in writhing tests.

Data set [10] is described as follows: Ulcerogenic activity in fasted albino rat assessed as incidence of ulceration at 28 uM/kg, po administered for 3 consecutive days (reference value: 0 %). Type of data set: toxicity, organism-based. The following applies: in vivo, 72 h, time 3 day.
The nature of data set [11]: Toxicity in albino rat assessed as decrease in body weight at. To be noted: in vivo, 24 h, dose <140 µM/Kg.
The target in data set [12] is T1, Prostaglandin G/H synthase 1 (Ovis aries, UniProt P05979).
T1 sequence (P05979 whole entry): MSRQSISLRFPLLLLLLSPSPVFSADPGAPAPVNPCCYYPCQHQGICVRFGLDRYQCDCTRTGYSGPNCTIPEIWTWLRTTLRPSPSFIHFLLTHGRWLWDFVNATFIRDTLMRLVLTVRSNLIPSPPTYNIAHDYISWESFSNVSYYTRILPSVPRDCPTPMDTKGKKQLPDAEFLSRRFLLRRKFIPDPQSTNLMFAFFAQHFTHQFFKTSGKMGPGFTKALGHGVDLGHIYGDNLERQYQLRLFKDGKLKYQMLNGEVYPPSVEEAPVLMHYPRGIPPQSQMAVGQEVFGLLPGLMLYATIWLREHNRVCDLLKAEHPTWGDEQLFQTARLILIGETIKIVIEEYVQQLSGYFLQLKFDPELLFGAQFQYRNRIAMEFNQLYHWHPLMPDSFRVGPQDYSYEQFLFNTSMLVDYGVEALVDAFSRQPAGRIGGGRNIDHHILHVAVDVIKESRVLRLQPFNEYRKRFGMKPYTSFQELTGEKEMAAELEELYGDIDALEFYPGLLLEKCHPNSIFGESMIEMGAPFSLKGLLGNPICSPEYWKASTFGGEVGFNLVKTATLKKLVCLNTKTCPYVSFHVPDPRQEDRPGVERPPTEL
Kind of data set: Inhibition of ovine COX-1 using arachidonic acid as substrate by fluorescence assay.

pIC50: −log10 of the molar value.

On to `COc1ccc2c(c1)c(CC(=O)O)c(C)n2C(=O)c1ccc(Cl)cc1` [INDOMETHACIN], for which the Activity in the data set with Rattus norvegicus [1] was determined as 83%; in data set [3], 1.18%; in the data set with Rattus norvegicus [4] it was 73.29%; with Rattus norvegicus [5], 0.42 mm; in data set [6] it was 2.6%; with Rattus norvegicus [7], 66.46%. The values for the Activity (in the data set on Rattus norvegicus [8]; in the data set with Rattus norvegicus [9]; in [10]) were 0.55 mm, 100% and 8%, respectively. Also, the UI in data set [2] is reported as 11.78.
Take `COc1ccc(N2CCN(CCc3c(C)nc4oc(-c5ccc(Cl)cc5)nn4c3=O)CC2)cc1`: the Activity was 83% in the data set with Rattus norvegicus [1]; 1% in data set [3]; 73.12% in the data set on Rattus norvegicus [4]; 0.43 mm with Rattus norvegicus [5]; 0.8% in data set [6]; 91% in the data set on Rattus norvegicus [7]. The Activity entry in data set [11] is reported as “Non-Toxic”; in the data set with Rattus norvegicus [8], 0.14 mm; with Rattus norvegicus [9], 100%; in data set [10], 4%. Moreover, in data set [2], the UI worked out at 5.8. For the same compound, the pIC50 (as a rule, −log10 of the IC50, conventionally taken in molar units) in data set [12] was 6.46.
For the compound `Cc1nc2oc(-c3ccccc3)nn2c(=O)c1CCN1CCCCC1`, the Activity with Rattus norvegicus [1] was 83%; in data set [3] it was 1.2%; in the data set with Rattus norvegicus [4], 76.25%; in the data set on Rattus norvegicus [5] it was 0.38 mm; in data set [6], 2.2%; in the data set with Rattus norvegicus [7] it was 56.16%. In addition, the Activity entry in data set [11] was “Non-Toxic”; with Rattus norvegicus [8], 0.7 mm; in the data set on Rattus norvegicus [9], 100%; in [10], 4%. The UI in data set [2] is listed as 7.4. Moreover, the pIC50 in data set [12] is 6.46.
Turning to `Cc1nc2sc(-c3ccc(Cl)cc3)nn2c(=O)c1CCN1CCOCC1`, the Activity in the data set with Rattus norvegicus [1] is 66%; in the data set on Rattus norvegicus [9], 80%.
On to `COc1ccc(N2CCN(CCc3c(C)nc4oc(-c5ccccc5)nn4c3=O)CC2)cc1`, for which the Activity in the data set with Rattus norvegicus [1] came out at 100%; in [3] it was 1%; in the data set with Rattus norvegicus [4] it was 73.12%; with Rattus norvegicus [5] it was 0.43 mm; in data set [6], 0.8%; in the data set on Rattus norvegicus [7], 61.7%. Besides, the Activity result in [11] is recorded as “Non-Toxic”; in the data set with Rattus norvegicus [8], 0.62 mm; in the data set on Rattus norvegicus [9], 120%; in data set [10], 2%. In addition, the UI in data set [2] is 3.8. In data set [12], this compound gave a pIC50 of 6.85.
With `Cc1nc2oc(-c3ccccc3)nn2c(=O)c1CCN1CCN(c2ccccc2)CC1`, the values for the Activity in the data set with Rattus norvegicus [1] and in the data set with Rattus norvegicus [9] were 50% and 60%, respectively.
With `Cc1nc2sc(-c3ccc(Cl)cc3)nn2c(=O)c1CCN1CCN(c2ccccc2)CC1`, the Activity in the data set on Rattus norvegicus [1] was determined as 66%; with Rattus norvegicus [9], 60%.
The corresponding values for `Cc1nc2sc(-c3ccc(Cl)cc3)nn2c(=O)c1CCN1CCCCC1` are 50% and 60%.
In the case of `Cc1nc2oc(-c3ccc(Cl)cc3)nn2c(=O)c1CCN1CCN(c2ccccc2)CC1`, the Activity in the data set on Rattus norvegicus [1] was 83%; in data set [3] it was 1%; in the data set with Rattus norvegicus [4] it was 94.75%; in the data set on Rattus norvegicus [5], 0.08 mm; in data set [6] it was 0.6%; with Rattus norvegicus [7], 70.73%. For the same compound, the Activity entry in data set [11] is on record as “Non-Toxic”; with Rattus norvegicus [8], 0.48 mm; in the data set on Rattus norvegicus [9], 100%; in data set [10], 4%. For the same compound, the UI in data set [2] was 5.6. The compound also showed a pIC50 in data set [12] of 6.83.
Turning to `COc1ccc(N2CCN(CCc3c(C)nc4sc(-c5ccc(Cl)cc5)nn4c3=O)CC2)cc1`, the Activity in the data set on Rattus norvegicus [1] was determined as 66%; in the data set with Rattus norvegicus [9], 60%.
Take `Cc1nc2oc(-c3ccccc3)nn2c(=O)c1CCN1CCOCC1`: the Activity in the data set with Rattus norvegicus [1] is listed as 50%; with Rattus norvegicus [9], 60%.
Turning to `Cc1nc2oc(-c3ccc(Cl)cc3)nn2c(=O)c1CCN1CCOCC1`, the Activity with Rattus norvegicus [1] stood at 66%; with Rattus norvegicus [9], 80%.
As for `Cc1nc2oc(-c3ccc(Cl)cc3)nn2c(=O)c1CCN1CCCCC1`, the Activity is given as 66% in the data set with Rattus norvegicus [1] and 80% in the data set on Rattus norvegicus [9].
